Data set [1] relates to rms1-10 pea mutant plants. Briefly: Pea shoot-branching assay by direct application on the bud, rms1-10. The data set is classed as in vivo, Pisum sativum. Conditions: for Length of bud at node 3 /branch: direct application, rms1-10, 10 days after treatment, mean per replicate. How it is done:
Pea (Pisum sativum) branching mutant plants used in this study were described previously (Rameau et al., [1997]). The SL biosynthesis rms1-10 (M3T-884) and SL response rms3-4 (M2T-30) mutants were obtained from the dwarf cv. Térèse. Plants were grown in a greenhouse under long days as described by Braun et al. ([2012]).
The compounds to be tested were applied directly to the axillary bud with a micropipette as 10 μL of a solution containing 0.1% of acetone with 2% of polyethylene glycol 1,450, 50% of ethanol, and 0.4% of DMSO. The control 0 is the treatment with 0.1% of DMSO without compound. A total of 24 plants were sown per treatment in trays (2 repetitions of 12 plants). The treatment was done 8 days after sowing, on the axillary bud at node 3. The branches at nodes 1–2 were removed to encourage the outgrowth of axillary buds at nodes above. Nodes were numbered acropetally from the first scale leaf as node 1 and cotyledonary node as node 0. Bud growth at node 3 was measured 10 days after treatment. Plants with damaged main shoot apex or showing a dead white treated bud were discarded from the analysis. The SL-deficient rms1-10 pea mutant was used for all experiments and WT Térèse as control. SL-perceived rms3-4 pea mutant was used to test that when bioactive, the analog acts via RMS3, and it was also used to check the putative toxicity of probes.

The nature of data set [2]: Stability of CoumarinAc and DiFMUAc (DMSO, PBS). Conditions: in PBS and in DMSO (20°C), in comparison to CoumarinAc. The data set is classed as physicochemical. As to the method:
Dimethyl sulfoxide (DMSO) solution of the compound to be tested (1 mM) was incubated at 20°C in the HPLC vials. (±)-1-Indanol [Alfa Aesar, purity >97.5% (GC); 10 mM] was used as the internal standard. The samples were subjected to reverse-phase-ultra-performance liquid chromatography (RP-UPLC)-MS analyses by means of UPLC system equipped with a photo diode array (PDA) and a triple quadrupole detector (TQD) mass spectrometer (Acquity UPLC-TQD, Waters). RP-UPLC (HSS C18 column, 1.8 μm, 2.1 × 50 mm) with 0.1% (v/v) of formic acid in CH3CN and 0.1% (v/v) of formic acid in water (aq. FA, 0.1%, v/v, pH 2.8) were used as eluents [10% CH3CN, followed by linear gradient from 10 to 100% of CH3CN (4 min)] at a flow rate of 0.6 ml min^−1. The detection was done by PDA and with the TQD mass spectrometer operated in electrospray ionization-positive mode at 3.2 kV capillary voltage. To maximize the signal, the cone voltage and collision energy were optimized to 20 V and 12 eV, respectively. The collision gas used was argon at a pressure maintained near 4.5 10^−3 mBar. The relative quantity of the remaining (non-degraded) product was determined by integration comparison with the internal standard.

Consider `CC(=O)Oc1c(F)cc2c(C)cc(=O)oc2c1F` [DiFMUAc], for which the “Length of bud at node 3 /branch” value in data set [1] (10 nM) worked out at 23.71 mm; in data set [1] (100 nM), 19.75 mm; in data set [1] (1,000 nM), 22.17 mm. In addition, in data set [1] (rms1-10, direct application, 100 nM), the “Effect on axillary bud” value is reported as “significant effect”. Moreover, the “Bioactivity on shoot branching inhibition (bud development)” value in data set [1] (rms1-10, direct application, result in words) was “no effect”. Further, the Stability result in data set [2] is reported as “poorly stable”.

The values above are taken from publication PMC9201908, “Expansion of the Strigolactone Profluorescent Probes Repertory: The Right Probe for the Right Application” (Frontiers in Plant Science, 2022).
